These results are taken from PMC8273083 (ACS infectious diseases, 2021).

Test [1] deals with RH-strain T. gondii tachyzoites. Nature of the test: In vivo efficacy, murine model of systemic. Also on record: species or system CF-1 mice. The conditions noted are these: 20 mg/kg orally once daily, in words.
A further test has as its target TgDHOD-VSSM (Toxoplasma gondii, UniProt Q8MXD1). Put plainly: TgDHOD inhibition. The format is biochemical.
In test [2] the test system is T222P strain of T. gondii. Nature of the test: microbe, parasite or virus in culture. The format is cell-based, Toxoplasma gondii.
A further test relates to RH-strain T. gondii. Put plainly: T. gondii growth inhibition, RH strain. The format is cell-based. The conditions noted are these: Toxoplasma gondii, read-out: EC50 vs RH (nM).

On to `CCc1nc(N)nc(N)c1-c1ccc(Cl)cc1` [pyrimethamine], for which the survival benefit entry in test [1] is “no survival benefit”. One may read the Ki as a measure of affinity in units of concentration, obtained from inhibition or displacement. `O=C1C(O)=C([C@H]2CC[C@H](c3ccc(Cl)cc3)CC2)C(=O)c2ccccc21` [ATV, atovaquone] returned a Ki on TgDHOD-VSSM of 2720 nM.

As usually defined, the EC50 is the concentration needed to bring the measured effect to its halfway point. With `COc1cc2[nH]c3cc(Oc4ccc(OC(F)(F)F)cc4)ccc3c(=O)c2cc1F` [Compound 27], the “effect of the T222P mutation on potency” value in test [2] (T222P versus RH strain, in words) is on record as “confers resistance”. Also, the EC50 turned out to be 5.61 nM in test [2] (Toxoplasma gondii, read-out: EC50 vs T222P (nM)) and 0.63 nM in the test with RH-strain T. gondii.
